Measured values published in patent publication US11214803B2, “Modulators of YAP1 expression” (Ionis Pharmaceuticals, Inc., priority 2019, dated 2022).
Strand notation (5' to 3'): a small letter for the sugar, then the base; units joined by * are phosphorothioate-linked, units joined directly phosphodiester-linked; [ ] holds rarer units or linkages, { } end groups; capitals alone tell only the bases. e = 2'-O-(2-methoxyethyl) (MOE); k = constrained ethyl (cEt); [5mC] = 5-methylcytosine; d = 2'-deoxy (DNA); m = 2'-O-methyl

Each substance was assayed on Yap1 mRNA (assay: Antisense inhibition of human Yap1 in SNU-449 cells by modified oligonucleotides, single dose (Example 5, RTS36584)). Details: Table 39; SNU-449 cells, 10,000 cells per well, free uptake, 2,000 nM oligonucleotide, approx. 48 hours; RTS36584; normalized to RIBOGREEN; Yap1 mRNA relative to untreated control.
Assay type: cell-based
Summary of the method: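 Values are % of untreated control: Yap1 mRNA by quantitative RT-PCR (RTS36584), normalized to RIBOGREEN total RNA. Oligonucleotides were dosed at 2,000 nM, free uptake, in SNU-449 cells, with roughly 48 h exposure before RNA isolation.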
“1198376 (kT*dG*dG*dA*dA*dA*dT*dT*dG*dT*d[5mC]*kT*e[5mC]*kA*eT*kG; antisense) [Compound 1198376]” was tested, and the “YAP1 (% UTC)” value was 36 % UTC. In the case of “1198399 (kA*dG*d[5mC]*dA*d[5mC]*dT*dT*dT*dT*dA*d[5mC]*kA*eT*kT*eA*kG; antisense) [Compound 1198399]”, the “YAP1 (% UTC)” value is reported as 35 % UTC. For “1198383 (kA*dT*dT*dA*dG*dA*dG*dT*dA*dT*dG*kT*eG*kG*e[5mC]*kA; antisense) [Compound 1198383]”, the “YAP1 (% UTC)” value was 31 % UTC.

Same assay, conditions: Table 40 (separate experiment); SNU-449 cells, 10,000 cells per well, free uptake, 2,000 nM oligonucleotide, approx. 48 hours; RTS36584; normalized to RIBOGREEN; Yap1 mRNA relative to untreated control
“1198759 (kA*eG*kG*dA*dT*dG*d[5mC]*dA*dT*dG*dG*dT*eT*eT*kT*kT; antisense) [Compound 1198759]” was tested, and the “YAP1 (% UTC)” value was 27 % UTC. “1198796 (antisense kA*eG*kT*dA*dA*dG*dG*dT*dT*dT*d[5mC]*d[5mC]*e[5mC]*eA*kG*kA) [Compound 1198796]” was tested, and the “YAP1 (% UTC)” value was 32 % UTC. With “1198425 (kA*d[5mC]*dT*d[5mC]*dT*dT*dA*dT*dA*dT*dG*kG*eT*kT*eT*kT; antisense) [Compound 1198425]” the “YAP1 (% UTC)” value was 35 % UTC.

Same assay, conditions: Table 41; SNU-449 cells, 10,000 cells per well, free uptake, 2,000 nM modified oligonucleotide, approximately 48 hours; RTS36584; normalized to RIBOGREEN; Yap1 mRNA relative to untreated control cells
In the case of “1198632 (kG*kA*dA*dA*dT*dT*dG*dT*d[5mC]*dT*d[5mC]*dA*kT*eG*k[5mC]*e[5mC]; antisense) [Compound 1198632]”, the “YAP1 (% UTC)” value is reported as 21 % UTC.

Same assay, conditions: Table 42 (separate experiment); SNU-449 cells, 10,000 cells per well, free uptake, 2,000 nM modified oligonucleotide, approximately 48 hours; RTS36584; normalized to RIBOGREEN; Yap1 mRNA relative to untreated control cells
For “1198235 (kT*kG*d[5mC]*dT*dT*dT*dG*dG*dA*dA*dG*eA*eT*e[5mC]*kT*kG) [Compound 1198235]”, the “YAP1 (% UTC)” value was 49 % UTC. “1198228 (kA*kA*dG*d[5mC]*dA*d[5mC]*dT*dT*dT*dT*dA*e[5mC]*eA*eT*kT*kA) [Compound 1198228]” was tested, and the “YAP1 (% UTC)” value was 54 % UTC. In the case of “1198693 (antisense kA*kT*dG*dT*dA*dA*dT*dA*dT*dT*dG*d[5mC]*kA*eA*kT*e[5mC]) [Compound 1198693]”, the “YAP1 (% UTC)” value is reported as 92 % UTC. For “1198695 (antisense kT*kT*dT*dA*dT*dG*dT*dA*dA*dT*dA*dT*kT*eG*k[5mC]*eA) [Compound 1198695]”, the “YAP1 (% UTC)” value was 75 % UTC.

Same assay, conditions: Table 43 experiment; SNU-449 cells, 10,000 cells per well, free uptake, 2,000 nM, approximately 48 hours; RTS36584; Yap1 mRNA normalized to RIBOGREEN, relative to untreated control cells
For “1198251 (kT*k[5mC]*dT*dT*dA*dT*dA*dT*dG*dG*dT*eT*eT*eT*kG*kT; antisense) [Compound 1198251]”, the “YAP1 (% UTC)” value was 83 % UTC. With “1198263 (kA*kT*dG*dT*dA*dA*dT*dA*dT*dT*dG*e[5mC]*eA*eA*kT*k[5mC]; antisense) [Compound 1198263]” the “YAP1 (% UTC)” value was 114 % UTC. In the case of “1198472 (antisense kT*kA*dT*dA*dT*dT*dA*dG*dA*dG*dT*eA*kT*eG*kT*eG) [Compound 1198472]”, the “YAP1 (% UTC)” value is reported as 60 % UTC. In the case of “1198278 (kT*kA*dA*dG*dT*dA*dA*dG*dG*dT*dT*eT*e[5mC]*e[5mC]*k[5mC]*kA; antisense) [Compound 1198278]”, the “YAP1 (% UTC)” value is reported as 43 % UTC. For “1198267 (kA*kG*dT*dG*dT*dA*dT*dG*dT*d[5mC]*dA*eG*eA*eA*kG*kA; antisense) [Compound 1198267]”, the “YAP1 (% UTC)” value was 7 % UTC.

Same assay, conditions: Table 44 experiment; SNU-449 cells, 10,000 cells per well, free uptake, 2,000 nM, approximately 48 hours; RTS36584; Yap1 mRNA normalized to RIBOGREEN, relative to untreated control cells
For “1198525 (kA*kG*dT*dG*dT*dA*dT*dG*dT*d[5mC]*dA*eG*kA*eA*kG*eA; antisense) [Compound 1198525]”, the “YAP1 (% UTC)” value was 2 % UTC.

Same assay, conditions: Table 45; Yap1 mRNA as percent of untreated control, SNU-449 cells, single dose
In the case of “1198948 (kG*kA*d[5mC]*dA*dA*d[5mC]*dT*d[5mC]*dT*dT*dA*kT*dA*kT*dG*kG; antisense) [Compound 1198948]”, the “YAP1 (% UTC)” value is reported as 96 % UTC. “1198974 (kA*kG*dA*d[5mC]*dT*dA*dA*dG*dT*dA*dA*kG*dG*kT*dT*kT; antisense) [Compound 1198974]” was tested, and the “YAP1 (% UTC)” value was 73 % UTC. In the case of “1198917 (k[5mC]*kA*d[5mC]*dT*dT*dT*dT*dA*d[5mC]*dA*dT*kT*dA*kG*dG*kA; antisense) [Compound 1198917]”, the “YAP1 (% UTC)” value is reported as 21 % UTC. “1095510 (antisense k[5mC]*kT*dG*dA*dG*dG*dT*dA*dT*dA*dA*k[5mC]*dT*kG*dG*kG) [Compound 1095510]” was tested, and the “YAP1 (% UTC)” value was 35 % UTC.

Same assay, conditions: Table 46; Yap1 mRNA as percent of untreated control, SNU-449 cells, single dose
“1198815 (antisense kT*kA*dG*dA*dG*dT*dA*dT*dG*dT*dG*kG*e[5mC]*kA*eA*kT) [Compound 1198815]” was tested, and the “YAP1 (% UT)” value was 24 % UT. With “1198817 (antisense kA*kT*dT*dA*dG*dA*dG*dT*dA*dT*dG*kT*eG*kG*e[5mC]*kA) [Compound 1198817]” the “YAP1 (% UT)” value was “AksTksTdsAdsGdsAdsGdsTdsAdsTds43 % UT”. For “1198847 (kT*kT*dT*dA*dG*dG*dA*dT*dG*d[5mC]*dA*kT*eG*kG*eT*kT; antisense) [Compound 1198847]”, the “YAP1 (% UT)” value was 51 % UT.

Same assay, conditions: Table 48; Yap1 mRNA level relative to untreated control; modified oligonucleotides targeting SEQ ID NO.: 1 and 2
“1009396 (k[5mC]*kA*k[5mC]*dT*dG*dA*dG*dG*dT*dA*dT*dA*dA*k[5mC]*kT*kG; antisense) [Compound 1009396]” was tested, and the “YAP1 (% UT)” value was 41 % UT. In the case of “1198348 (kT*kG*kT*dA*dA*dT*dA*dT*dT*dG*d[5mC]*dA*kA*eT*k[5mC]*eT; antisense) [Compound 1198348]”, the “YAP1 (% UT)” value is reported as 40 % UT. In the case of “1198347 (kG*kT*kA*dA*dT*dA*dT*dT*dG*d[5mC]*dA*dA*kT*e[5mC]*kT*eG; antisense) [Compound 1198347]”, the “YAP1 (% UT)” value is reported as 14 % UT. “1198327 (kT*kT*kT*dA*dG*dG*dA*dT*dG*d[5mC]*dA*dT*kG*eG*kT*eT; antisense) [Compound 1198327]” was tested, and the “YAP1 (% UT)” value was 29 % UT. For “1198346 (kT*kA*kA*dT*dA*dT*dT*dG*d[5mC]*dA*dA*dT*k[5mC]*eT*kG*eT; antisense) [Compound 1198346]”, the “YAP1 (% UT)” value was 40 % UT.

Same assay, conditions: Table 49; Yap1 mRNA level relative to untreated control; modified oligonucleotides targeting SEQ ID NO.: 1 and 2
For “1198357 (kT*kT*kA*dA*dA*dG*dT*dG*dT*dA*dT*dG*kT*e[5mC]*kA*eG; antisense) [Compound 1198357]”, the “YAP1 (% UT)” value was 21 % UT. “1198363 (kA*kA*kG*dT*dA*dA*dG*dG*dT*dT*dT*d[5mC]*k[5mC]*e[5mC]*kA*eG; antisense) [Compound 1198363]” was tested, and the “YAP1 (% UT)” value was 55 % UT. In the case of “1198365 (k[5mC]*kT*kA*dA*dG*dT*dA*dA*dG*dG*dT*dT*kT*e[5mC]*k[5mC]*e[5mC]; antisense) [Compound 1198365]”, the “YAP1 (% UT)” value is reported as 13 % UT. For “1198544 (antisense kA*kA*kT*dT*dG*dT*d[5mC]*dT*d[5mC]*dA*dT*dG*k[5mC]*k[5mC]*kT*eT) [Compound 1198544]”, the “YAP1 (% UT)” value was 21 % UT.

Same assay, conditions: Table 50; Yap1 mRNA remaining as percent of untreated control (UT), SNU-449 cells, single dose
With “1198614 (antisense kT*kA*kA*dA*dG*dT*dG*dT*dA*dT*dG*dT*k[5mC]*kA*kG*eA) [Compound 1198614]” the “YAP1 (% UT)” value was 4 % UT. “1198560 (antisense kT*kA*kT*dA*dA*d[5mC]*dT*dG*dG*dG*d[5mC]*dA*kA*kA*kT*eT) [Compound 1198560]” was tested, and the “YAP1 (% UT)” value was 53 % UT. “1198617 (antisense k[5mC]*kT*kT*dT*dA*dA*dA*dG*dT*dG*dT*dA*kT*kG*kT*e[5mC]) [Compound 1198617]” was tested, and the “YAP1 (% UT)” value was 34 % UT. With “1095454 (antisense k[5mC]*kT*kG*dA*dG*dG*dT*dA*dT*dA*dA*d[5mC]*kT*kG*kG*eG) [Compound 1095454]” the “YAP1 (% UT)” value was 47 % UT. With “1198600 (antisense kG*kA*k[5mC]*dA*dA*d[5mC]*dT*d[5mC]*dT*dT*dA*dT*kA*kT*kG*eG) [Compound 1198600]” the “YAP1 (% UT)” value was 72 % UT. For “1197228 (antisense kA*kA*kT*dT*mG*dT*d[5mC]*dT*d[5mC]*dA*dT*dG*d[5mC]*k[5mC]*kT*kT) [Compound 1197228]”, the “YAP1 (% UT)” value was 25 % UT.

Same assay, conditions: Table 51; Yap1 mRNA remaining as percent of untreated control (UT), SNU-449 cells, single dose
In the case of “1197302 (k[5mC]*kA*kG*dA*mU*dT*dT*dA*dG*dG*dA*dT*dG*k[5mC]*kA*kT; antisense) [Compound 1197302]”, the “YAP1 (% UT)” value is reported as 54 % UT. In the case of “1197308 (kA*kA*kT*dA*mU*dT*dG*d[5mC]*dA*dA*dT*d[5mC]*dT*kG*kT*k[5mC]; antisense) [Compound 1197308]”, the “YAP1 (% UT)” value is reported as 49 % UT. With “1197251 (antisense kT*kT*kT*dG*mG*dA*dA*dG*dA*dT*d[5mC]*dT*dG*kA*kA*kA) [Compound 1197251]” the “YAP1 (% UT)” value was 74 % UT. For “1200787 (kA*kA*kA*dT*dT*mG*dT*d[5mC]*dT*d[5mC]*dA*dT*dG*k[5mC]*k[5mC]*kT) [Compound 1200787]”, the “YAP1 (% UT)” value was 38 % UT. With “1197297 (GTGCUTTGGAAGATCT; cEt/MOE gapmer, phosphorothioate, 5-methylcytosine, chemistry not fully specified) [Compound 1197297]” the “YAP1 (% UT)” value was 25 % UT. With “1197278 (kG*kA*k[5mC]*dT*mA*dA*dG*dT*dA*dA*dG*dG*dT*kT*kT*k[5mC]) [Compound 1197278]” the “YAP1 (% UT)” value was 36 % UT.

Same assay, conditions: Table 52; Yap1 mRNA, modified oligonucleotides targeting SEQ ID NO: 1 and 2
For “1200809 (k[5mC]*kA*k[5mC]*dT*dG*mA*dG*dG*dT*dA*dT*dA*dA*k[5mC]*kT*kG; antisense) [Compound 1200809]”, the “YAP1 (% UT)” value was 69 % UT.

Same assay, conditions: Yap1 mRNA, percent of untreated control; modified oligonucleotides targeting SEQ ID NO: 1 and 2; Table 47
For “1009328 (kT*kA*kT*dA*dT*dT*dA*dG*dA*dG*dT*dA*dT*kG*kT*kG; antisense) [Compound 1009328]”, the “YAP1 (% UT)” value was 67 % UT. In the case of “1197197 (antisense kT*k[5mC]*kA*dG*dA*dT*dT*dT*dA*dG*dG*dA*dT*kG*k[5mC]*kA) [Compound 1197197]”, the “YAP1 (% UT)” value is reported as 20 % UT.
